Assay results taken from a melting point compilation (Tetko et al.; mined from patent text by program, amines drawn as free bases though some values may be those of a salt).

Compared with `Cc1ccccc1C(=O)Nc1ccc(C(=O)N2Cc3ccccc3Cc3ccccc32)c(C)c1`, `CNC(=O)c1cccc(NC(=O)Cc2c(O)ccc3ccccc23)c1` is higher in melting point: 112 to 114 °C for the first, 229 to 230 °C for the second.

First: N#Cc1cnnc2ccccc12
Second: ClCc1nc2ccccc2s1
The melting point of the first is higher: 140 °C for the first, 34 °C for the second.

First: COc1ccc(F)cc1OCCN1C(=O)c2ccccc2C1=O
Second: COc1cc(Nc2cc(-c3ccc(F)cc3)nc3ccccc23)ccc1Cl
The melting point of the first is lower: 134 to 136 °C for the first, 274 to 276 °C for the second.

Going from `CCOC(=O)c1nc2cc(C(C(C)C)n3ccnc3)ccc2[nH]c1=O` (stereo unspecified) to `CCOCn1c(Cc2ccccc2)c(C(C)C)c(=O)[nH]c1=O`, the melting point falls from 230 °C to 111 °C.

`O=c1[nH]nc2c3cccc(Cl)c3[nH]c(=O)n12` and `Cc1ccccc1-n1nc(-c2cccc(C(=O)O)c2)[nH]c1=O` cannot be ordered by melting point: 348 to 350 °C for the first, over 310 °C for the second.

First: O=C(O)c1ccc2c(=O)n3nc(C(=O)O)ccc3nc2c1
Second: COn1c(C)nc2cc(C(=O)c3ccccc3)ccc21
The melting point of the first is higher: over 360 °C for the first, 67.7 °C for the second.

Compared with `COCOc1cccc(F)c1C=NO`, `NCC(O)COc1cccc2c1=NC(=O)N=2` (stereo unspecified) is higher in melting point: 102 to 104 °C for the first, 188 to 190 °C for the second.

Compared with `CN1CCN(c2cccc3c2C[C@H](NC(=O)c2ccc(Br)cc2)CC3)CC1`, `CC(=O)c1ccc(S(=O)(=O)N2CCCC2c2ccc(F)cc2)cc1` (racemic) is lower in melting point: 200 to 201 °C for the first, 148 °C for the second.

First: COc1ccc(-c2nc(C(=O)NCCO)c[nH]2)cc1OC1CCCC1
Second: COc1ccc(C2=CC(=O)CC2)cc1OC1CCCC1
The melting point of the first is higher: 206 to 208 °C for the first, 136 to 137 °C for the second.

First: O=C1CCC2C3Cc4ccc(O)c5c4C2(CC[N+]3([O-])CC2CC2)C1O5 (stereo unspecified)
Second: CC(C)CCC1CCCCc2c1oc(=O)c(C(c1ccccc1)C1CC1)c2O (stereo unspecified)
The melting point of the first is higher: 209 to 211 °C for the first, 67 to 77 °C for the second.

Compared with `CC(C)CC(NC(=O)O)C(=O)NC(C)(C)C#N` (stereo unspecified), `CCOC(=O)c1ccc(CN(C(C)=O)C(=O)OC(C)(C)C)cc1` is lower in melting point: 166 to 168 °C for the first, 96 to 97 °C for the second.

First: CCOC(=O)C1=CC(C(=O)c2cc(C)ccc2O)=CN2CCc3c([nH]c4ccc(OC)cc34)C12C(=O)OCC (stereo unspecified)
Second: CCN(CC)C(=O)c1cc(C)ccc1-c1ccc(OC)cc1
The melting point of the first is higher: 228 °C for the first, 113 to 114 °C for the second.

Compared with `CCCCP(CCCC)(CCCC)=C1CC(=O)OC1=O`, `CCCc1c(SC(=S)N(CC)CC)c2cc(Br)ccc2oc1=O` is higher in melting point: 70 °C for the first, 135 to 137 °C for the second.

First: CC(C)(C)OC(=O)NCCc1c[nH]c2ccc(CCO)cc12
Second: COc1ccc(CCNC(=O)C(F)(F)F)c2c1NC(=O)C2=O
The melting point of the first is lower: 204 to 206 °C for the first, 234 to 237 °C for the second.

First: CCC1Oc2ccc(-c3nc4ccccn4c3C)cc2NC1=O (stereo unspecified)
Second: CC(C)n1nc(-c2c(NCc3ccccn3)nc(N)nc2-c2ccc(F)cc2)ccc1=O
The melting point of the first is higher: 216 to 217 °C for the first, 210 to 212 °C for the second.

First: OC1(c2ccc(C(F)(F)F)cc2)CCNCC1
Second: c1ccc2c(N3CCNCC3)n[nH]c2c1
The melting point of the first is lower: 130 to 132 °C for the first, 139 to 150 °C for the second.

First: Clc1ccccc1Cn1ncnc1I
Second: O=C(Cl)c1ccc(OCc2ccccc2)c(Cl)c1
The melting point of the first is higher: 98 °C for the first, 78 to 80 °C for the second.

Compared with `CCCn1nc2c(N)nc3c(c2c1CCCc1cc(-c2cccnc2)no1)CCCC3`, `CCCCCc1c(C(C)C)nc(C(C)C)c(CO)c1-c1cccc(Cl)c1` is lower in melting point: 168 to 170 °C for the first, 94 to 95 °C for the second.

Compared with `CC1(C)CC(=S)Nc2ccc(-c3cccc(Cl)c3)cc21`, `CC1(C)Cc2cccc(Oc3ccc(N)cc3Cl)c2O1` is lower in melting point: 197 to 198 °C for the first, 102 to 104 °C for the second.

First: OCC1C2OCC(O2)C(OCc2ccccc2)C1O (stereo unspecified)
Second: COC(=O)COc1cccc2c(CCS(=O)CCc3ccccc3)c(C)oc12 (stereo unspecified)
The melting point of the first is higher: 111 to 113 °C for the first, 77 to 78 °C for the second.

Compared with `COC(=O)C(OCc1ccc(-c2ccc(Cl)cc2)cc1)(C(F)(F)F)C(F)(F)F`, `COc1ccc2nc(C3=CCN(Cc4ccc(Cl)cc4)CC3)[nH]c2c1` is higher in melting point: 61.5 to 62.5 °C for the first, 203 to 205 °C for the second.

Compared with `Cc1ccnc(N2CCN(CCc3c(C)n4c5c(cc(C(O)C(C)C)cc35)CCC4)CC2)c1` (stereo unspecified), `N#CCCN1CCN(c2cc3cccnc3c(-c3cccc(C#N)c3)n2)CC1` is higher in melting point: 140 °C for the first, over 200 °C for the second.

Compared with `CN1Cc2cc(C(c3ccccc3)n3ccnc3)ccc2NC1=O` (stereo unspecified), `COc1ccc2c(c1)c1c(n2-c2ccccc2)C(=O)CO1` is higher in melting point: 174 °C for the first, 175 °C for the second.

First: CC(C)(C)[Si](n1cc(Br)c2ncccc21)(C(C)(C)C)C(C)(C)C
Second: CC(C)(C)OC(=O)N1CCC2(CC1)SCc1ccccc12
The melting point of the first is lower: 79 to 80 °C for the first, 131 to 132 °C for the second.

First: O=c1sc2ccccc2n1CO
Second: C1=NCc2cncn2-c2ccccc21
The melting point of the first is lower: 101 to 103 °C for the first, 150 to 151 °C for the second.

Compared with `CC(C)(C)c1ccc(CNC(=O)C(Cc2ccccc2)NC(=O)Nc2n[nH]c(=S)s2)cc1` (stereo unspecified), `CC(=O)SC(CC(=O)N[C@@H](Cc1ccccc1)C(=O)O)C(=O)c1ccccc1` (stereo partly specified) is lower in melting point: 213 to 214 °C for the first, 110 to 112 °C for the second.

First: COC(=O)c1ccc(OC)c(C(C)=O)c1
Second: CCCc1nn(C)c2c(=O)n(CCNc3ccc(C(C)=O)cc3)c(-c3ccc(OC)c(OC)c3)nc12
The melting point of the first is lower: 54 to 58 °C for the first, 182 to 184 °C for the second.

First: Nc1ncccc1C(=O)NCC1CCN(CC2COc3ccc(F)cc3O2)CC1 (stereo unspecified)
Second: CCCNC(=O)c1cc(-c2ccc(OC)cc2)nn(CC2CC2)c1=O
The melting point of the first is higher: 141 to 143 °C for the first, 101 to 102 °C for the second.

First: O=C1C2CCC(C(=O)N2Cc2ccccc2)N1Cc1ccccc1
Second: NC(=S)NN=C(CCC(=O)NCc1ccccc1)c1ccccc1
The melting point of the first is higher: 168 to 170 °C for the first, 162 to 164 °C for the second.

First: COc1ccc(C=CC(=O)c2c(OC)cc(OC)cc2OC2OC(CO)C(O)C(O)C2NC(C)=O)cc1 (stereo unspecified)
Second: COc1cc(Cl)cc2c1OC(C)(COS(=O)(=O)c1ccc(C)cc1)C2 (stereo unspecified)
The melting point of the first is higher: 197 to 200 °C for the first, 113 to 115 °C for the second.

First: O=C(Nc1cccnc1)N1CCN(c2nccc(-c3ccc(F)c(F)c3)n2)CC1
Second: COc1cc2nc(N3CCN(C(=S)Nc4ccccc4)CC3)nc(N)c2cc1OC
The melting point of the first is higher: 231 to 232 °C for the first, 138 to 140 °C for the second.

First: CCCCc1ncc(/C=C2\C(=O)NC(=O)N2Cc2cccs2)n1Cc1ccc(C(=O)OC)cc1
Second: COc1ccc(CNc2cc(Cn3c(C(=O)c4cc(C)cc(C)c4)c(C(C)C)c(=O)[nH]c3=O)cc(Cl)n2)cc1
The melting point of the first is lower: 164 to 165 °C for the first, 211 to 212 °C for the second.

First: Nc1c(Cl)cc(C(=O)O)c2c1CCCO2
Second: O=C(O)Cc1ccc2c(c1)sc1cc(Cl)ccc12
The melting point of the first is higher: 226 °C for the first, 198 to 200 °C for the second.

Compared with `Cc1c(C(=O)CCl)c(C)n(C)c1C(=O)c1ccc(Cl)cc1Cl`, `O=C(CCc1ccc(Cl)cc1Cl)NC1N=C(c2ccccc2)c2ccccc2-n2ccnc21` (stereo unspecified) is higher in melting point: 100 to 102 °C for the first, 183 to 184 °C for the second.

First: COc1cc(Br)c(OC)c2c1C=C([N+](=O)[O-])CC2
Second: CCc1cc2cc(OC)c(Cl)c(Cl)c2s1
The melting point of the first is higher: 121 to 123 °C for the first, 73 to 74.5 °C for the second.

First: CCOC(=O)C=Cc1ccc(Oc2ccc([N+](=O)[O-])cc2)c(Cl)c1Cl
Second: CCC1=NNC(C)=C(C(=O)NN)C1c1cccc([N+](=O)[O-])c1 (stereo unspecified)
The melting point of the first is higher: 145 to 146 °C for the first, 98 °C for the second.

Compared with `CC(C)NC(=O)Nc1cccc2c1C(=O)C1(O)c3ccc(C(C)C)cc3OC21O` (stereo unspecified), `COc1ccc(-c2[nH]nc3c2C(=O)c2c(NC(=O)NNC(=O)c4cc(N)cc(N)c4)cccc2-3)cc1` is higher in melting point: 81 to 85 °C for the first, over 300 °C for the second.

Compared with `COC(=O)C1(O)CC(OC(C)=O)C(NC(=O)Cc2cc(=O)oc3cc(OC(C)=O)ccc23)C(C(OC(C)=O)C(COC(C)=O)OC(C)=O)O1` (stereo unspecified), `C=CC(=O)N1CCc2cc(OC)c(OC)cc2C12CCC(C(=O)OCC)(C(=O)OCC)CC2C1c2cc(OC)c(OC)cc2CCN1C(C)=O` (stereo unspecified) is higher in melting point: 105 °C for the first, 162 to 165 °C for the second.

First: CCCCC[C@@H](CNC(=O)Nc1c(N2CCCC2)ncnc1N1CCCC1)c1cccc2c1OCO2
Second: CCOc1ccccc1NC=C1C(=O)N(c2ccc(S(=O)(=O)N3CCCCC3)cc2)N=C1C
The melting point of the first is lower: 199 to 200 °C for the first, 252 °C for the second.

Compared with `CC1C(c2ccccc2)OP(N)(=O)N1C` (stereo unspecified), `Nc1ncnc2c1ncn2Cc1oc2ccccc2c(=O)c1-c1ccccc1F` is higher in melting point: 170 to 172 °C for the first, 202 to 205 °C for the second.

Compared with `O=C(Nc1ccc(Cl)nc1)c1cc2cc(F)ccc2n1Cc1ccncc1`, `CCn1ncc2c(NCc3ccc(C#N)cc3)c3ccccc3nc21` is lower in melting point: 244 to 246 °C for the first, 233 to 234 °C for the second.

First: CC#CCOc1ccc(SC(C(=O)NO)c2ccc(Br)cc2)cc1 (stereo unspecified)
Second: CC(C)N(CCOc1ccc(-c2nnc(CSCCOc3ccccc3)o2)cc1)C(C)C
The melting point of the first is higher: 153 °C for the first, 42 to 45 °C for the second.

Compared with `Cc1cc2c(cc1C)Sc1cscc1C(=O)N2`, `Cc1cc(Nc2ccccn2)c(S(C)(=O)=O)cc1C(=O)N=C(N)N` is lower in melting point: 264 to 265 °C for the first, 225 to 226 °C for the second.

Compared with `NNC(=O)Nc1nccs1`, `CCOC(=O)CCNCC(O)COc1cccc(C#N)c1` (stereo unspecified) is lower in melting point: 166 to 167 °C for the first, 95 °C for the second.

Compared with `CCC(=O)NCC=C1CCc2ccc3nn(C)cc3c21`, `CCC1(C)CC(C)(C)c2cc(O)ccc21` (stereo unspecified) is lower in melting point: 185 to 187 °C for the first, 86 °C for the second.

First: COc1cc(OC)nc(C(C)c2ccccc2N)n1 (stereo unspecified)
Second: COc1ccccc1C=C(C=O)C(C=O)=Cc1ccccc1OC
The melting point of the first is lower: 136 to 139 °C for the first, 163 to 164 °C for the second.

Compared with `CCCCC(Oc1ccccc1)C(=O)OC1CC(O)C=C2C=CC(C)C(CCC3CC(O)CC(=O)O3)C21` (mixture of isomers), `CC(=O)OCC(=O)C1=CCC2C3CCC4=CC(=O)C=CC4(C)C3(F)C(O)CC12C` (stereo unspecified) is higher in melting point: 139 to 141 °C for the first, 223 to 225 °C for the second.

First: CN(C)CCCN1c2ccccc2C(c2ccccc2Cl)=Nc2cccnc21
Second: CN1c2ccccc2Sc2cc(C=Cc3ccc(-c4ccc(C=Cc5ccc6c(c5)Sc5ccccc5N6C)cc4)cc3)ccc21
The melting point of the first is lower: 104 to 106 °C for the first, 380 °C for the second.

`CS(=O)(=O)c1ccc(Br)cc1C(F)(F)F` and `C=CCCOc1ccc(CCCOC(=O)NS(=O)(=O)NCCOC(C)C)c(Oc2ncc(C(F)(F)F)cc2Cl)c1` cannot be ordered by melting point: 110 to 112 °C for the first, 111 to 113 °C for the second.

First: O=[N+]([O-])c1ccccc1-c1nnc(-c2ccc(C3OCCO3)cc2)o1
Second: CN1CCc2cc(OC[C@H]3CO[C@](Cn4ccnc4)(c4ccc(Cl)cc4Cl)O3)ccc2C12CCSCC2 (racemic)
The melting point of the first is lower: 88 to 89 °C for the first, 138 to 139 °C for the second.

In the case of `Oc1cccc2c1CC=CC2`, the melting point is reported as 70.5 to 72 °C.
